This is an account of results in patent EP4737453A1, “NOVEL SELENOPHENE DERIVATIVES” (Aigen Sciences Inc., priority 2023, dated 2025).

Read-outs that look alike come from different tables or passages of the source.

A word on the IC50: it is the concentration that gives 50% inhibition.

Test [1] concerns NCI-H358. In words: Cell Growth Inhibition Assay (3D CellTiter-Glo). The class given is cell-based. The conditions noted are these: Homo sapiens, read-out: Cell growth IC50. On the procedure: Cell Growth Inhibition Assay
In this experimental example, the cell growth inhibitory effect of compounds according to the present invention and positive control compounds in tumor cell lines was examined.
The cell culture medium containing the compound was replaced by 100 µL every 3 days. Luminescence analysis was performed using the 3D CellTiter-Glo Luminescent Cell Viability Assay Kit (Promega, USA) (Promega catalog number G9681). […] The percent cell growth inhibition rate was calculated from the measured relative luminescence unit (RLU) as follows. Inhibition rate = 1−((RLU compound−RLU blank)/(RLU control−RLU blank)) X 100 [formula]
Background: In ATP-based viability assays light output follows the ATP content of the culture.

Test [2] has as its target T1, SOS1 and KRAS G12C interaction (Homo sapiens, UniProt Q07889).
T1 sequence (Q07889 564-1049 limits assumed): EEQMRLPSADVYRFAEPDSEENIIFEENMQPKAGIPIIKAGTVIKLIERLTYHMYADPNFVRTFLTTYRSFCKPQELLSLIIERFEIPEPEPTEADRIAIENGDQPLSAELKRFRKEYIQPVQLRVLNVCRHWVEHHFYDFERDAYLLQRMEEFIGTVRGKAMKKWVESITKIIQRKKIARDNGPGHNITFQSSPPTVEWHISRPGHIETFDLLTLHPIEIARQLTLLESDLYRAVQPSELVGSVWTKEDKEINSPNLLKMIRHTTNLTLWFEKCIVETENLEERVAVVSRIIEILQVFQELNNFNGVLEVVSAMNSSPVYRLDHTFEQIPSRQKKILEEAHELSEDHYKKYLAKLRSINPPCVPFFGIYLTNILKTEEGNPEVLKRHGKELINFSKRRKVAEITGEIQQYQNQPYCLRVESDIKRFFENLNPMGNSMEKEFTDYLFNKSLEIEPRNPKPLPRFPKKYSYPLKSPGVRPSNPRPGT
The experiment in a line: Biochemical analysis of the inhibitory activity of SOS1 and KRAS G12C interaction (time-resolved fluorescence, 665/615 nm). As for the experimental part: Biochemical analysis of the inhibitory activity of SOS1 and KRAS G12C interaction
In this experimental example, the efficacy of the compound according to the present invention in inhibiting the binding of KRAS and SOS1 was biochemically measured. A KRAS G12C working solution was prepared by adding biotin-linked KRAS G12C protein and europium-linked streptavidin to assay buffer solution (20 mM HEPES, 50 mM NaCl, 200 µg/mL […] (BSA), 0.01% Pluronic F127). Then, SOS1, in which a tag consisting of six histidine residues is covalently linked, and anti-histidine tag antibody D2 were added to the assay buffer to prepare an SOS1 working solution. After these two working solutions were added to the wells of a well plate, solutions diluted according to the experimental concentration of the test compound from the 10 mM dimethyl sulfoxide (DMSO) stock solution of the Example compound or positive control compound were added to the wells in 100 nL aliquots using an Echo automatic dispenser (Beckman Coulter, USA), or a DMSO blank was added to the wells.

Test [3] concerns the target T2, SOS2 and KRAS G12C interaction (Homo sapiens, UniProt Q07890).
T2 sequence (Q07890 1-1332): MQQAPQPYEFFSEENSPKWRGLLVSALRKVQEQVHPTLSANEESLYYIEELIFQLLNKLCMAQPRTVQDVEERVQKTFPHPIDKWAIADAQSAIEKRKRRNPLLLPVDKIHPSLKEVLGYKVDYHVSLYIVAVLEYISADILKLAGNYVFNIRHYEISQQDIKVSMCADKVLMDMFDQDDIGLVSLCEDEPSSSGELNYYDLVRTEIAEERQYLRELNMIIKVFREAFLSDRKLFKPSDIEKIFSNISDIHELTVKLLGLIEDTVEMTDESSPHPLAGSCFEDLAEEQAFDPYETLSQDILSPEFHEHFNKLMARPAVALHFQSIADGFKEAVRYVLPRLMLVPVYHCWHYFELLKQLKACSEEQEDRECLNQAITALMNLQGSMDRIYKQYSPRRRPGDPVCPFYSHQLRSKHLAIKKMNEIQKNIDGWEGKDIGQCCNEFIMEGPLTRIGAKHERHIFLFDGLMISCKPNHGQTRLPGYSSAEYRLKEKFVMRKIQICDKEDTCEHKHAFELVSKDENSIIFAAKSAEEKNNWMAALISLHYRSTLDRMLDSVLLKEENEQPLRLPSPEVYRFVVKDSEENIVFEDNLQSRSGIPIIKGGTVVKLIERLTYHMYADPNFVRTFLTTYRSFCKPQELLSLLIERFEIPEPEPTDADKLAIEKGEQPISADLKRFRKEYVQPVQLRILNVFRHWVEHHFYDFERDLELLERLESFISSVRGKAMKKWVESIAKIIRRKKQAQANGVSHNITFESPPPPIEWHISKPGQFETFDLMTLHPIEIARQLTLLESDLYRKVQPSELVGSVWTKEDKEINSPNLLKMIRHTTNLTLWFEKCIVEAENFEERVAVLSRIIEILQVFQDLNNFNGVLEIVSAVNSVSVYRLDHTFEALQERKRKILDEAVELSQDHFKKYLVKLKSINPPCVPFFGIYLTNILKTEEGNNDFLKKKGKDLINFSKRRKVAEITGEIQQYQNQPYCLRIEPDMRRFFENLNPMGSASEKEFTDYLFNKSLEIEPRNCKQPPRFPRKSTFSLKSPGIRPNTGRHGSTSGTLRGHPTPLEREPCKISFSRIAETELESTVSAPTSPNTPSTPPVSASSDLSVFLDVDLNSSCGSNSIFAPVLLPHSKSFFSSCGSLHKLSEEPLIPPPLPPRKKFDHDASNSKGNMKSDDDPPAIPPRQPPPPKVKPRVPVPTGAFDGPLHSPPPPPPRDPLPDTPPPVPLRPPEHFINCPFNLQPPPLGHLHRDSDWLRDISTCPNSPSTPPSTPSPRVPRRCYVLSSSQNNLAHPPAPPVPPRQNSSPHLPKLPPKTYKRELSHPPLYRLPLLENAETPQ
The class given is biochemical. As to conditions: SOS2, KRAS G12Cs; read-out: Enzyme activity IC50.

Test [4] concerns MIA-PaCa-2. The experiment in a line: Reactive oxygen species (ROS) production assay. The conditions noted are these: MIA-PaCa-2 cells, 10 µM, 24 hours; Figure 3. Format: cell-based. As for the experimental part:
Reactive oxygen species (ROS) production assay
In this experimental example, it was examined that the compound according to the present invention has the effect of increasing reactive oxygen in tumor cells.
MIA-PaCa-2 (Korea Cell Line Bank KCLB No. 21420), a cancer cell line harboring KRAS G12C mutation, was cultured in a cell culture medium containing RPMI1640 (Gibco, USA, catalog no. 11875-119), 10% fetal bovine serum (HyClone, USA, catalog no. SH30919.03), and 1 × diluted HyClone Antibiotic Antimycotic solution (HyClone, USA, catalog no. SV30079.01). 3 × 10^5 cells were seeded per well in a 6-well plate and cultured for 1 day at 37°C under 5% CO2 conditions. […] The cells were then collected in a microtube and analyzed for fluorescence using a BD LSRFortessa™ X-20 Cell Analyzer (BD Biosciences, USA) (excitation wavelength: 488 nm, emission wavelength: 535 nm). The fluorescence intensity due to the increase in reactive oxygen species was measured for 10,000 cells. Among the cells treated with 500 µM hydrogen peroxide, which was the positive control, the section in which the fluorescence intensity increased compared to the cells treated with the blank sample was found, and the average fluorescence intensity of the cells within this section was calculated. […]

Setting [5] is: SOS1, KRAS G12C, 60 minutes at room temperature, read-out: Enzyme activity IC50.

As to `CNCc1ccccc1-c1csc([C@H](C)Nc2nc(C)nc3cc(OC)c(OC)cc23)c1` [BAY-293, (S)-6,7-dimethoxy-2-methyl-N-[1-[4-[2-[(methylamino)methyl]phenyl]thiophene-2-yl]ethyl]quinazolin-4-amine, reference compound], the IC50 in test [1] (288 h, NCI-H358 (KRAS G12C), 96-well 3D assay plate, 12 days) was 136 nM. Regarding `CNCc1ccccc1-c1c[se]c([C@@H](C)Nc2nc(C)nc3cc(OC)c(O[C@H]4CCOC4)cc23)c1` [Example 2, 7-methoxy-2-methyl-N-((R)-1-(4-(2-((methylamino)methyl)phenyl)selenophen-2-yl)ethyl)-6-(((S)-tetrahydrofuran-3-yl)oxy)quinazolin-4-amine], the IC50 in test [2] was 16.6 nM; in test [1] (NCI-H358, 288 h), 58.7 nM.

`CNCc1ccccc1-c1c[se]c([C@@H](C)Nc2nc(Cl)nc3c2CN(C(=O)C2(OC)CCOCC2)C3)c1` [Example 3, (R)-(2-chloro-4-((1-(4-(2-((methylamino)methyl)phenyl)selenophen-2-yl)ethyl)amino)-5,7-dihydro-6H-pyrolo[3,4-d]pyrimidine-6-yl)(4-methoxytetrahydro-2H-pyran-4-yl)methanone]: the IC50 came to 34.7 nM in test [2] and 124 nM in test [1] (NCI-H358, 288 h). The like results for `CNCc1ccccc1-c1c[se]c([C@@H](C)Nc2nnc(C)c3cnc(N4CCOCC4)cc23)c1` [Example 4, (R)-4-methyl-N-(1-(4-(2-((methylamino)methyl)phenyl)selenophen-2-yl)ethyl)-7-morpholinopyrido[3,4-d]pyridazine-1-amine] were, in that order, 13.4 nM and 51.7 nM. The like results for `COc1cc2nc(C)nc(N[C@H](C)c3cc(-c4ccccc4CN(C)C)c[se]3)c2cc1OC` [Example 5, (R)-N-(1-(4-(2-((dimethylamino)methyl)phenyl)selenophen-2-yl)ethyl)-6,7-dimethoxyl-2-methylquinazolin-4-amine] were, in that order, 27.7 nM and 50 nM.

Regarding `COc1cc2nc(C)nc(N[C@H](C)c3cc(-c4ccccc4CN4CCCC4)c[se]3)c2cc1OC` [Example 6, (R)-6,7-dimethoxyl-2-methyl-N-(1-(4-(2-(pyrrolidine-1-ylmethyl)phenyl)selenophen-2-yl)ethyl)quinazolin-4-amine], the IC50 in test [2] was 76 nM; in test [1] (NCI-H358, 288 h) it was 87.5 nM. As for `[2H]C([2H])([2H])NCc1ccccc1-c1c[se]c([C@@H](C)Nc2nc(C)nc3cc(OC)c(OC)cc23)c1` [Example 7, (R)-6,7-dimethoxyl-2-methyl-N-(1-(4-(2-(((methyl-d3)amino)methyl)phenyl)selenophen-2-yl)ethyl)quinazolin-4-amine], the IC50 in test [2] was found to be 19.3 nM; in test [1] (NCI-H358, 288 h), 25.6 nM.

Turning to `COc1cc2nc(C)nc(N[C@H](C)c3cc(-c4ccccc4CN(C)C)c[se]3)c2cc1O[C@H]1CCOC1` [Example 8, N-((R)-1-(4-(2-((dimethylamino)methyl)phenyl)selenophen-2-yl)ethyl)-7-methoxy-2-methyl-6-(((S)-tetrahydrofuran-3-yl)oxy)quinazolin-4-amine], the IC50 in test [2] (setting [5]) came to 16.2 nM. Same read-out and setting: next, `COc1cc2nc(C)nc(N[C@H](C)c3cc(-c4ccccc4CN4CCCC4)c[se]3)c2cc1O[C@H]1CCOC1` [Example 9, 7-methoxy-2-methyl-N-((R)-1-(4-(2-(pyrrolidine-1-ylmethyl)phenyl)selenophen-2-yl)ethyl)-6-(((S)-tetrahydrofuran-3-yl)oxy)quinazolin-4-amine]: 22.5 nM. As to `Cc1c(C#N)cccc1[C@@H](C)Nc1nnc(C)c2cnc(N3CCOCC3)cc12` [MRTX0902, (R)-2-methyl-3-(1-((4-methyl-7-morpholinopyrido[3,4-d]pyridazine-1-yl)amino)ethyl)benzonitrile, reference compound], the IC50 is 1640 nM in test [3] and 108 nM in test [1] (NCI-H358, 288 h). In test [4], the “ROS production compared to the blank sample” value is recorded as “did not increase ROS production”.
